Molecules are shown by their SMILES. Read-outs that look alike come from different tables or passages of the source.

The conditions of data set [1]: cited from earlier work.
The format of data set [2] is in vivo, human. The conditions noted are these: for V/F, geometric mean (%CV): single oral 45 mg tablet.
Data set [3] in a line: Safety and tolerability of single-dose ponatinib 45 mg in healthy subjects. It counts as in vivo, human.

`Cc1nc(Nc2ncc(C(=O)Nc3c(C)cccc3Cl)s2)cc(N2CCN(CCO)CC2)n1` [dasatinib]: in data set [1], the “Effect of food intake on PK” value is recorded as “unaffected by food intake”.

Turning to `Cc1ccc(C(=O)Nc2ccc(CN3CCN(C)CC3)c(C(F)(F)F)c2)cc1C#Cc1cnc2cccnn12` [ponatinib, 3-[2-(imidazo[1,2-b]pyridazin-3-yl)ethynyl]-4-methyl-N-{4-[(4-methylpiperazin-1-yl)methyl]-3-(trifluoromethyl)phenyl}benzamide], the “Time at which maximum mean concentrations were reached” value in data set [2] (across high-fat, low-fat and fasted regimens, single 45-mg tablet) lay in the range of 5 to 6 h. Also, the “Quantifiability of ponatinib in plasma” value in data set [2] (all three treatment regimens, lower limit 0·5 ng/mL) is “quantifiable through the 96-h sampling interval”. The “V/F, geometric mean (%CV)” value in data set [2] (fasted) is listed as 1242 (30·0) L. The “V/F, geometric mean (%CV)” value in data set [2] (high-fat meal) is 1104 (28·8) L. The “V/F, geometric mean (%CV)” value in data set [2] (low-fat meal) was 1278 (37·6) L. For the same compound, in data set [2] (overall, fasting, high-fat and low-fat), the “Time post-dose at which maximum plasma concentration was observed” value was approximately 6 h. The “Subjects with AEs at least possibly related to treatment, n (%)” value in data set [3] (24 subjects, all regimens) is recorded as 10 (41·7%) subjects. For the same compound, in data set [3] (all regimens), the “Severe AEs” value is recorded as “no severe AEs”; the “Treatment-related increased lipase levels” value was “three”; the “Vital signs, ECG parameters or physical examinations” value is on record as “No clinically significant abnormalities”. Moreover, the “High triacylglycerol lipase levels” value in data set [3] (clinically significant abnormality) is recorded as “three”. For the same compound, the Tolerability result in data set [3] (healthy subjects, regardless of food intake regimen) is “generally well tolerated”. Further, the “Clinically significant abnormalities (laboratory), number” value in data set [3] (in a total of five subjects) is given as “five”.

The record behind these values is PMC4286001 (Journal of Clinical Pharmacy and Therapeutics, 2013).
